# Source: patent publication US6090987A, “Metal-ligand complex catalyzed processes” (Union Carbide Chemicals & Plastics Technology Corporation, priority 1998, dated 2000)
# Key:
# [1] = Residual propylene hydroformylation activity after heat treatment, Ligand F catalyst (Table 1)
# Procedure: A catalyst solution (100 milliliters) was generated in a six ounce Fisher Porter Bottle by dissolving 0.063 grams of rhodium dicarbonyl 2,4-pentanedionate, 0.8 grams of Ligand F, 20 grams of n-butyraldehyde, and 78.7 grams of tetraethylene glycol dimethyl ether, subsequently alternately evacuating and flushing with nitrogen; and finally adding 60 psi of CO:H2, and placing the bottles in a 100° C. oil bath for 1 hour.
# After closing the reactor, the system was again purged with nitrogen and place in an oil bath heated to 100° C. The hydroformylation reaction in each experiment was conducted at a total gas pressure of 160 psig. The target partial pressure of hydrogen, carbon monoxide, and propylene being about 45 psia, 45 psia, and 5 psia respectively, with the remainder being nitrogen. The flows of the feed gases (carbon monoxide, hydrogen, propylene, and nitrogen) were controlled individually with mass flow meters. The feed gases were dispersed into the precursor solution via stainless steel 7-micron filters used as spargers. The unreacted portion of the feed gases stripped out the product aldehydes. Each experiment was operated for 24 hours under the above conditions. The activity is defined as the observed reaction rate divided by the predicted reaction rate. The reaction rates are expressed in terms of gram moles per liter per hour.
# The same procedure as in Example 2 was followed with the exception that a slow stream of 1,2-propadiene was purged through the initially generated catalyst solution for 5 minutes. Excess was then removed by alternately evacuating and flushing with nitrogen. The resulting solution was heated at 125° C. as in Example 2, and 20 milliliters of the resulting solution was transferred to a glass reactor as in Example 2 and the activity determined.
# The same procedure as in Example 3 was followed except 2 milliliters of 1,3-butadiene was added to the generated catalyst and stirred for 5 minutes. Excess 1,3-butadiene was then removed by alternate evacuation and flushing with nitrogen. The resulting solution was heated at 125° C. as in Example 2, and 20 milliliters of the resulting solution was transferred to a glass reactor as in Example 2 and the activity determined.
# The same procedure as in Example 4 was followed with the exception that 50 milliliters of a catalyst solution generated as in Example 2 was treated with 0.5 milliliters of 2-methyl-1,3-butadiene (isoprene) in place of 1,3-butadiene.
# A catalyst solution (20 milliliters) was generated in a Fisher Porter Bottle as in Example 2 under 60 psi CO:H2 for 1 hour, then cooled to room temperature and treated with 0.5 milliliters of 1,3-butadiene. The solution was removed from the Fisher Bottle by hypodermic syringe and transferred to a 100 milliliter stirred stainless vessel and maintained at 140° C. under 15 psi nitrogen for 14 hours. The resulting solution was then transferred to the glass reactors as in Example 2, and the residual catalyst activity measured. […]
# The same procedure as in Example 8 was followed except allene was employed in place of 1,3-butadiene, and the resulting solution heated at 140° C. for 48 hours without removing excess allene.
# A 20 milliliter sample of freshly generated catalyst solution (prepared as in Example 2) was charged to the glass reactors and the activity measured.
# The same procedure as in Example 8 was followed except 0.4 grams of 1,3-cyclohexadiene was employed in place of 1,3-butadiene.
# [2] = Propylene hydroformylation rate and colour of (TPP)3 Rh(CO)H catalyst after thermal treatment; conditions: for hydroformylation rate: 100° C.
# Procedure: TPP is triphenylphosphine. 15 grams of this bright yellow solution was charged to a Fisher Porter bottle under inert gas. To this solution was added 20 psi of butadiene with stirring. The pressure dropped as the butadiene dissolved into the solution. The reactor was repressured twice with butadiene (20 psig) and then the reaction was place under a total of 45 psig with nitrogen. The solution was heated to 120° C. for 15 minutes. […] At ambient temperature, the reaction was placed under vacuum for 4 hours to remove any excess butadiene.
# Since the solvent has a very high boiling point, the concentration of rhodium was assumed to have remained unchanged while under vacuum. Indeed, no change in volume was detected visually while under vacuum. 15.0 milliliters of the 275 parts per million solution was charged to a 100 milliliter autoclave.
# This example is a control for Example 23. 15 grams of the catalyst solution prepared in Example 23 was charged to a Fisher Porter bottle under inert gas. 45 psig of nitrogen was added to the reaction vessel, then the reaction was heated to 120° C. for 15 minutes. […] 15.0 milliliters of the 275 parts per million solution was charged to a 100 milliliter autoclave.
# A catalyst solution was prepared by adding 113 milligrams of (TPP)3 Rh(CO)H to 40.4 grams Filmer IBT® available from Union Carbide Corporation, Danbury, Conn., resulting in a rhodium concentration of 312 parts per million. At this point, the rhodium complex was a suspended in the solvent. Approximately 20 grams of this solution of (TPP)3 Rh(CO)H in tetraglyme was charged to a Fisher Porter bottle under inert gas. To this solution was added 30 psi of butadiene with stirring. The pressure dropped to 20 psig as the butadiene dissolved into the solution. The reactor was repressured twice with butadiene (30 psig) and then the pressure was adjusted to 60 psig with nitrogen. The solution was placed into 140° C. oil bath, which caused the reaction to become homogeneous within a minute. The reaction was maintained at 140° C. for 50 minutes. […] The reaction vessel was removed from the oil bath and the butadiene was vented from the reactor while the reaction was hot. After gas evolution ceased, the reaction vessel was placed carefully placed under dynamic vacuum until gas evolution had ceased for 10 minutes. The reaction was then placed under a slight positive pressure of nitrogen. […] 15.0 milliliters of the 284 parts per million solution was charged to a 100 milliliter autoclave.
# This example serves as a control for Example 25. Approximately 20 grams of the solution prepared in Example 25 was charged to a Fisher Porter bottle under inert gas. 60 psig of nitrogen was added to the reaction vessel, then the reaction was heated to 140° C. for approximately 110 minutes. […] This solution was place into and out of the oil bath at the same time as the solution in Example 25. After thermal treatment, 10 weight percent of triphenylphosphine was added to the reaction mixture. […] 15 milliliters of the 284 parts per million solution was charged to a 100 milliliter autoclave.
# [3] = 125° C./24 hours, no excess diene
# [4] = 140° C./14 hours, excess diene present
# [5] = 140° C./48 hours, excess diene present
smiles,measurement,setting,value
"C=CC=C [Butadiene, 1,3-butadiene]",% Activity,[1]; [3],102%
same,Final Rate,[1]; [3],2.23 gram moles per liter per hour
same,% Activity,[1]; [4],25.2%
same,Final Rate,[1]; [4],0.55 gram moles per liter per hour
same,% Activity,[1]; [5],96.3%
same,Final Rate,[1]; [5],2.10 gram moles per liter per hour
same,color change of catalyst solution,[2]; 120° C. for 15 minutes under butadiene/nitrogen,No color change was observed
same,color of catalyst solution,[2]; 140° C. for 50 minutes under butadiene/nitrogen,maintained a bright yellow color
same,color change of catalyst solution,"[2]; 140° C. for further 60 minutes, butadiene removed",no observable color change
same,hydroformylation rate,"[2]; after 120° C. for 15 minutes with butadiene, 275 ppm Rh, 9.1 wt% triphenylphosphine, 115 psig",1.4 gmol/L-h
same,hydroformylation rate,"[2]; after 140° C. for 50 minutes with butadiene and 60 minutes after venting, 284 ppm Rh, 95 psig",1.0 gmol/L-h
